# Test results from US20260035356A1, “MODULATORS OF TYK2 PROTEOLYSIS AND ASSOCIATED METHODS OF USE” (Arvinas Operations, Inc., priority 2022, published 2026).
# “Also recorded” adds a separate entry of the source.
# Biological target: T1, TYK2 (Homo sapiens, UniProt P29597)
# T1 construct: MOLT-4 cells (ATCC CRL-1582) were acquired from ATCC and maintained in RPMI-1640 medium; host or cells: MOLT-4 cells
# Assay: TYK2 degradation in MOLT-4 cells (Western blot, TYK2 level relative to DMSO-treated cells)
# Type: cell-based
# Details: for amount of TYK2 protein, normalized to the amount of GADPH protein, detected in cell lysates (FIG. 2B): compound alone, PROTAC 1 at 100 nM; for Tyk2 Degradation Score: MOLT-4 cells, 24 hours after treatment, TYK2 level related to DMSO-only cells
# Experimental: With reference to FIGS. 2A-2B. MOLT-4 cells (ATCC CRL-1582) were acquired from ATCC and maintained in RPMI-1640 medium supplemented with 10% fetal bovine serum (ATCC 30-2020), the combination henceforth referred to as “media”. Cells were maintained according to ATCC, (see product sheet), including incubation at 37° C. with 5% C02 in air other than during brief manipulations in a cell culture hood or during centrifugation.
# 18-24 hours before compound treatment, cells growing for 2-3 days in a flask were centrifuged at 200×g for 8 min, the media was aspirated, and fresh media was used to resuspend the cells. Cells were then counted, diluted with fresh media, and seeded at 650,000-750,000 cells/ml in 6-well plates, with 2 ml of volume per well.
# Compounds to be tested were solubilized and stored in dimethyl sulfoxide (DMSO) at 10 mM. Compounds were first diluted in DMSO and then media so that the DMSO concentration was identical across treatments and the final concentration of DMSO was below 0.1% (typically 0.04%). Cells in each well of a 6-well plate were treated by adding 0.5 ml of fresh media containing varying concentrations of compounds to be tested—or only DMSO as a “no treatment” control.
# Cells were harvested 24 hours after treatment by collecting all volume from each well into labeled microfuge tubes followed by centrifugation at 200×g for 8 min. Cells were washed in 1 ml of phosphate buffered saline (DPBS; Gibco 141190144) and then 0.5 ml of DPBS by centrifugation (as above) and aspiration. Cell pellets were resuspended by pipetting up-and-down in 100 microliters of ice cold RIPA buffer (Thermo, 89900) supplemented with 1× protease inhibitor cocktail and 1×EDTA (Pierce, 87786) and 1× phosphatase inhibitor cocktail (Pierce, 78420). Cell extracts were incubated on ice for 10 min and then centrifuged at 21,130×g for 20 min in a microfuge. Supernatants were collected and protein concentration for each sample was determined using a BCA kit (Thermo, 23225). Each sample was then denatured by adding 4×LDS buffer (Invitrogen, NP0008) to 1× followed by heating at 95° C. for 5 minutes.
# Proteins were separated by electrophoresis using a XCell4 Surelock Midi-Cell apparatus (Invitrogen) and then transferred to PVDF membranes within iBlot 2 Transfer Stacks (Invitrogen, IB24001) using an iBlot 2 system (Invitrogen). Membranes were cut horizontally at a 50 kDa molecular weight marker and each piece of membrane was blocked in TBS-T+5% non-fat dry milk (NFDM) for 1-24 hours. Membranes were then incubated with antibody to TYK2 (Cell Signaling Technologies, 14193) or GAPDH (Cell Signaling Technologies, 5174; as loading control) in TBS-T+1% NFDM for 1 hour. Membranes were washed four times in TBS-T for 10 min each time, and then incubated with a HRP-conjugated secondary antibody (Cell Signaling Technologies, 7074) in TBS-T+1% NFDM for one hour. Membranes were washed four times for 10 min in TBS-T. Membranes were then incubated with reagents according to the SuperSignal West Femto Kit (Thermo, 34095) for 1 min at room temperature. Membranes were then imaged using a Gel Doc XR+ system (BioRad).
# Captured images were processed using Image Lab software (BioRad). Using the volume tool, band intensities within rectangles of equal area were determined with the local subtraction method. The effects of compounds on TYK2 levels were related to the level of TYK2 from cells treated with only DMSO (no compound).
# T1 sequence (P29597 whole entry): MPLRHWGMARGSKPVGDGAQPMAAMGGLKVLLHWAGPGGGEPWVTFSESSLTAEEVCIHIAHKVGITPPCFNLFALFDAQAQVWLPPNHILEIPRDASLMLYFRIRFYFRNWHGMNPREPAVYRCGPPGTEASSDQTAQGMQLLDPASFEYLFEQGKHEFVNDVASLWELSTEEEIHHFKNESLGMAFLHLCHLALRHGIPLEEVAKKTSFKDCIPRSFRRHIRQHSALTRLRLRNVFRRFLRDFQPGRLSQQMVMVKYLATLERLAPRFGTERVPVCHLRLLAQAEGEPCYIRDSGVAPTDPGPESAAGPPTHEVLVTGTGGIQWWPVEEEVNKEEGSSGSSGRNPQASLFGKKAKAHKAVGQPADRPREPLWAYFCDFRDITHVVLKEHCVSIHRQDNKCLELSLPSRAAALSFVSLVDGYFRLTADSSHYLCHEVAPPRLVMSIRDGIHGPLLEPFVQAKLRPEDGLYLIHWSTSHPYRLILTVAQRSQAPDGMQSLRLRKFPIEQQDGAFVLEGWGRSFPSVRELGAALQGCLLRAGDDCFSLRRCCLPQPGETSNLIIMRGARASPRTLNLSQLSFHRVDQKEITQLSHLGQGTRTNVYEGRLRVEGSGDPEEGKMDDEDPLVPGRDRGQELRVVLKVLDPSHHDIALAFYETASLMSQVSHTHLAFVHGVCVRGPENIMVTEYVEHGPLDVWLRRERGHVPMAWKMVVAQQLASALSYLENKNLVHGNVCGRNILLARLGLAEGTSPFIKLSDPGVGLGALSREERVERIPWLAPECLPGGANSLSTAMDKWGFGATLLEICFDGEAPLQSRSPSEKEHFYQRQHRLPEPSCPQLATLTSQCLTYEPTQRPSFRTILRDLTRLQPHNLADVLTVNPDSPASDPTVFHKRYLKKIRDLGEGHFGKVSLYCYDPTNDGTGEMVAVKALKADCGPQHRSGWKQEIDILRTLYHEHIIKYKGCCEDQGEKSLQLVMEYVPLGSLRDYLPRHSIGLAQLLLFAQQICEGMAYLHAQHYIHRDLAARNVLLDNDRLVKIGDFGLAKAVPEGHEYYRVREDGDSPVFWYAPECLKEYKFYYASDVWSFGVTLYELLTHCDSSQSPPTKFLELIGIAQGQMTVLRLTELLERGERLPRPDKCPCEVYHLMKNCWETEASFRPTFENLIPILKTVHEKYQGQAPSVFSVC
Structure (SMILES),Tyk2 Degradation Score,"amount of TYK2 protein, normalized to GADPH, under competition with pomalidomide (FIG. 2B) (24 hour treatment, PROTAC 1 plus pomalidomide (competing for CRBN binding))","amount of TYK2 protein, normalized to the amount of GADPH protein, detected in cell lysates (FIG. 2B) (24 hour treatment)"
"CNC(=O)c1nnc(NC(=O)CCN2CCC(C3CN(c4ccc5c(c4)C(=O)N(C4CCC(=O)NC4=O)C5=O)C3)CC2)cc1Nc1cccc(-c2ncn(C)n2)c1OC (stereo not shown) [PROTAC 1, 6-(3-(4-(1-(2-(2,6-Dioxopiperidin-3-yl)-1,3-dioxoisoindolin-5-yl)azetidin-3-yl)piperidin-1-yl)propanamido)-4-((2-methoxy-3-(1-methyl-1H-1,2,4-triazol-3-yl)phenyl)amino)-N-methylpyridazine-3-carboxamide]",+ (25-50% degradation),reversal of the PROTAC effect; also recorded: significantly reduces extent of degradation,effective at 100 nM in reducing the amount of TYK2 protein; also recorded: shows degradation
"CNC(=O)c1nnc(NC(=O)CCN2CCN(c3ccc4c(c3)C(=O)N(C3CCC(=O)NC3=O)C4=O)CC2)cc1Nc1cccc(-c2ncn(C)n2)c1OC (stereo not shown) [PROTAC 2, 6-(3-(4-(2-(2,6-Dioxopiperidin-3-yl)-1,3-dioxoisoindolin-5-yl)piperazin-1-yl)propanamido)-4-((2-methoxy-3-(1-methyl-1H-1,2,4-triazol-3-yl)phenyl)amino)-N-methylpyridazine-3-carboxamide]",— (< 25% degradation),,
"CNC(=O)c1nnc(NC(=O)CCN2CCC(CC3CN(c4ccc5c(c4)C(=O)N(C4CCC(=O)NC4=O)C5=O)C3)CC2)cc1Nc1cccc(-c2ncn(C)n2)c1OC (stereo not shown) [PROTAC 3, 6-(3-(4-((1-(2-(2,6-Dioxopiperidin-3-yl)-1,3-dioxoisoindolin-5-yl)azetidin-3-yl)methyl)piperidin-1-yl)propanamido)-4-((2-methoxy-3-(1-methyl-1H-1,2,4-triazol-3-yl)phenyl)amino)-N-methylpyridazine-3-carboxamide]",++ (51-75% degradation),,
"Nc1cccc2c1C(=O)N(C1CCC(=O)NC1=O)C2=O (stereo not shown) [pomalidomide, reference compound]",,,does not significantly reduce the amount of TYK2 protein

# Now from value to molecule, other results behind:
Tyk2 Degradation Score,Structure (SMILES),"amount of TYK2 protein, normalized to GADPH, under competition with pomalidomide (FIG. 2B) (24 hour treatment, PROTAC 1 plus pomalidomide (competing for CRBN binding))","amount of TYK2 protein, normalized to the amount of GADPH protein, detected in cell lysates (FIG. 2B) (24 hour treatment)"
+ (25-50% degradation),"CNC(=O)c1nnc(NC(=O)CCN2CCN(c3cc(N4CCN(c5ccc6c(c5)C(=O)N(C5CCC(=O)NC5=O)C6=O)CC4)ncn3)CC2)cc1Nc1cccc(-c2ncn(C)n2)c1OC (stereo not shown) [PROTAC 4, 6-(3-(4-(6-(4-(2-(2,6-Dioxopiperidin-3-yl)-1,3-dioxoisoindolin-5-yl)piperazin-1-yl)pyrimidin-4-yl)piperazin-1-yl)propanamido)-4-((2-methoxy-3-(1-methyl-1H-1,2,4-triazol-3-yl)phenyl)amino)-N-methylpyridazine-3-carboxamide]",,
+ (25-50% degradation),"CNC(=O)c1nnc(NC(=O)CCN2CCC(COCC3CCN(c4ccc5c(c4)C(=O)N(C4CCC(=O)NC4=O)C5=O)CC3)CC2)cc1Nc1cccc(-c2ncn(C)n2)c1OC (stereo not shown) [PROTAC 5, 6-(3-(4-(((1-(2-(2,6-Dioxopiperidin-3-yl)-1,3-dioxoisoindolin-5-yl)piperidin-4-yl)methoxy)methyl)piperidin-1-yl)propanamido)-4-((2-methoxy-3-(1-methyl-1H-1,2,4-triazol-3-yl)phenyl)amino)-N-methylpyridazine-3-carboxamide]",,
++ (51-75% degradation),"CNC(=O)c1nnc(NC(=O)CCNCC2CCN(c3ccc4c(c3)C(=O)N(C3CCC(=O)NC3=O)C4=O)CC2)cc1Nc1cccc(-c2ncn(C)n2)c1OC (stereo not shown) [PROTAC 6, 6-(3-(((1-(2-(2,6-Dioxopiperidin-3-yl)-1,3-dioxoisoindolin-5-yl)piperidin-4-yl)methyl)amino)propanamido)-4-((2-methoxy-3-(1-methyl-1H-1,2,4-triazol-3-yl)phenyl)amino)-N-methylpyridazine-3-carboxamide]",,
+++ (>75% degradation),"CNC(=O)c1nnc(NC(=O)CCN2CC(CN3CCN(C4CCN(c5ccc6c(c5)C(=O)N(C5CCC(=O)NC5=O)C6=O)CC4)CC3)C2)cc1Nc1cccc(-c2ncn(C)n2)c1OC (stereo not shown) [PROTAC 7, 6-(3-(3-((4-(1-(2-(2,6-Dioxopiperidin-3-yl)-1,3-dioxoisoindolin-5-yl)piperidin-4-yl)piperazin-1-yl)methyl)azetidin-1-yl)propanamido)-4-((2-methoxy-3-(1-methyl-1H-1,2,4-triazol-3-yl)phenyl)amino)-N-methylpyridazine-3-carboxamide]",,
+++ (>75% degradation),"CNC(=O)c1nnc(NC(=O)CCN2CCC(CCCN3CCN(c4ccc5c(c4)C(=O)N(C4CCC(=O)NC4=O)C5=O)CC3)CC2)cc1Nc1cccc(-c2ncn(C)n2)c1OC (stereo not shown) [PROTAC 8, 6-(3-(4-(3-(4-(2-(2,6-Dioxopiperidin-3-yl)-1,3-dioxoisoindolin-5-yl)piperazin-1-yl)propyl)piperidin-1-yl)propanamido)-4-((2-methoxy-3-(1-methyl-1H-1,2,4-triazol-3-yl)phenyl)amino)-N-methylpyridazine-3-carboxamide]",,
++ (51-75% degradation),"CNC(=O)c1nnc(NC(=O)CCN2CCC(CCC3CCN(c4ccc(Oc5ccc6c(c5)C(=O)N(C5CCC(=O)NC5=O)C6=O)cc4)CC3)CC2)cc1Nc1cccc(-c2ncn(C)n2)c1OC (stereo not shown) [PROTAC 9, 6-(3-(4-(2-(1-(4-((2-(2,6-Dioxopiperidin-3-yl)-1,3-dioxoisoindolin-5-yl)oxy)phenyl)piperidin-4-yl)ethyl)piperidin-1-yl)propanamido)-4-((2-methoxy-3-(1-methyl-1H-1,2,4-triazol-3-yl)phenyl)amino)-N-methylpyridazine-3-carboxamide]",,
++ (51-75% degradation),"CNC(=O)c1nnc(NC(=O)CCN2CCC(CNc3ccc4c(c3)C(=O)N(C3CCC(=O)NC3=O)C4=O)CC2)cc1Nc1cccc(-c2ncn(C)n2)c1OC (stereo not shown) [PROTAC 10, 6-(3-(4-(((2-(2,6-Dioxopiperidin-3-yl)-1,3-dioxoisoindolin-5-yl)amino)methyl)piperidin-1-yl)propanamido)-4-((2-methoxy-3-(1-methyl-1H-1,2,4-triazol-3-yl)phenyl)amino)-N-methylpyridazine-3-carboxamide]",,
